{"source": "ChEMBL document CHEMBL4813945", "about": "“Discovery and development of novel pyrimidine and pyrazolo/thieno-fused pyrimidine derivatives as potent and orally active inducible nitric oxide synthase dimerization inhibitor with efficacy for arthritis” (Eur J Med Chem, 2021)", "key": {"Rattus norvegicus": {"system": "Rattus norvegicus", "assay": "Antiinflammatory activity in complete freund's adjuvant-induced IG dosed male Sprague-Dawley rat model of arthritis assessed as decrease in IL-1beta level in serum after 4 weeks by ELISA", "assay_type": "functional, organism-based", "details": "dose 40-80 mg/kg"}, "[1]": {"assay": "Subacute toxicity in rat assessed as liver damage at 100 to 500 mg/kg, IG administered every other day for 14 days and measured every 2 days by H and E staining", "assay_type": "organism-based", "details": "in vivo, po, 336 h, dose 100-500 mg/kg, time 14 day"}, "[2]": {"biological_target": "T1, Nitric oxide synthase, inducible (Mus musculus) (UniProt P29477)", "T1 sequence (whole entry)": "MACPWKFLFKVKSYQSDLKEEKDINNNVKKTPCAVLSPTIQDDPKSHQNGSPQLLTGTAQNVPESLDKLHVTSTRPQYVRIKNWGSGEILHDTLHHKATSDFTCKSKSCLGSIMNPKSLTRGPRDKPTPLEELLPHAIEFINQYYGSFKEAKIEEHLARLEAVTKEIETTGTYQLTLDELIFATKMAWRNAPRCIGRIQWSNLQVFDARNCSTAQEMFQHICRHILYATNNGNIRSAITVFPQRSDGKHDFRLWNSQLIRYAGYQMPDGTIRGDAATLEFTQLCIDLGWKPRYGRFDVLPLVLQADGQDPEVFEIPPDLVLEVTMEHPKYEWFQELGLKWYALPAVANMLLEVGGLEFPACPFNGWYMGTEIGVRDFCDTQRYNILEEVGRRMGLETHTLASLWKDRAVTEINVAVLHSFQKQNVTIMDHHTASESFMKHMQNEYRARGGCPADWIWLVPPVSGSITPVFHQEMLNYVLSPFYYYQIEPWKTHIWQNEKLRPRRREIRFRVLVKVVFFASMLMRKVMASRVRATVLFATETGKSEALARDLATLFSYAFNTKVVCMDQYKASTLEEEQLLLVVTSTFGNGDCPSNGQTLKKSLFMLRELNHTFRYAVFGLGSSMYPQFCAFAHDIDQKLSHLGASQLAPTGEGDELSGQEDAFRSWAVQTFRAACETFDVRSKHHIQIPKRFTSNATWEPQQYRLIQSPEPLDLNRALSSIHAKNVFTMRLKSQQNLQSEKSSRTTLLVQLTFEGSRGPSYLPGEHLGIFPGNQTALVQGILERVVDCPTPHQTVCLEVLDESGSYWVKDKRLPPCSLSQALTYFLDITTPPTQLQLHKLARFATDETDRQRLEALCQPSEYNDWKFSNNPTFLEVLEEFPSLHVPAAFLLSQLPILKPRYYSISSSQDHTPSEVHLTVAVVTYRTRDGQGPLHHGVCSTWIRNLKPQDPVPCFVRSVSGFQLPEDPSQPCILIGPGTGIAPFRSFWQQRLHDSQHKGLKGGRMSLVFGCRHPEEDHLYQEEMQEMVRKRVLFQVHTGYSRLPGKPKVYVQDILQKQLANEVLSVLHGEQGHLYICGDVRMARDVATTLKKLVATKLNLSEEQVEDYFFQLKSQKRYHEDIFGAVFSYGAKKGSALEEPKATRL", "assay": "Inhibition of iNOS dimer formation in LPS-induced mouse RAW264.7 cells at 0.5 to 2 uM preincubated for 1 hrs followed by LPS-stimulation and measured after 24 hrs by Westernblot analysis", "details": "dose 0.5-2 µM, time 25.0 hrs"}, "Cytochrome P450 2C19": {"biological_target": "Cytochrome P450 2C19 (Homo sapiens, UniProt P33261)", "sequence (P33261 whole entry)": "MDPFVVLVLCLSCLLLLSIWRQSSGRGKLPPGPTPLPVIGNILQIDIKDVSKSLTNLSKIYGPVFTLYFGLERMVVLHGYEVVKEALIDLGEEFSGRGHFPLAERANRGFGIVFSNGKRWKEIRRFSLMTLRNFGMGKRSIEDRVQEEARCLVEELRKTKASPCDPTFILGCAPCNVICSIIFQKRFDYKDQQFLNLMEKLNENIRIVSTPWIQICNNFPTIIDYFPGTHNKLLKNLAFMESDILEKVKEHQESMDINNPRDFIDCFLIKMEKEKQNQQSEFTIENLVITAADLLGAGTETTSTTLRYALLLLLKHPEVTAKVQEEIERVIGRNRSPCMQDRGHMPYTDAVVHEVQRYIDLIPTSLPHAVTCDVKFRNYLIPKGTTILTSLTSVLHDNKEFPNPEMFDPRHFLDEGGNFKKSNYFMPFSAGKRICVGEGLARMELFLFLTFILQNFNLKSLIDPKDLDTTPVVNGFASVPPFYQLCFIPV", "assay": "Inhibition of CYP2C19 in human liver microsomes using Mephenytoin as substrate measured after 20 mins by LC-MS/MS analysis", "assay_type": "ADME"}}, "note": "Activity calls are given as the source filed them. No cut-off for these calls is given here.", "data": [{"smiles": "COc1cc(/C=C/c2nc(NCc3ccc(C)cc3)c3sccc3n2)cc(OC)c1OC", "values": [{"measurement": "Activity", "setting": "Rattus norvegicus", "value": "Dose-Dependent Effect"}, {"measurement": "Activity", "setting": "[1]", "value": "Non-Toxic"}, {"measurement": "inhibition", "setting": "[2]", "value": "Active"}, {"measurement": "IC50", "setting": "Cytochrome P450 2C19", "value": 7.76, "unit": "µM"}]}]}
